Type in all cases: cell-based, human
For assay [1], the system named is retinal cells (NR) dispersed into single cells (KhES-1-derived). Kind of assay: Seeding onto Transwell: confirmation of effect of CHIR99021 (Example 9). The following applies: CHIR99021 5 μM or 3 μM with Y-27632 (and SAG); Day 14. As for the experimental part: The aggregates of Days 15 to 30 from initiation of the suspension culture prepared as in Example 1 were washed with PBS, and a neuronal cell dispersion solution (manufactured by FUJIFILM Wako Pure Chemical Corp.) was added. After incubation at 37° C., they were dispersed into single cells by pipetting.
When cell sheets obtained on Culture Day 14 for aggregate reforming were observed, it was confirmed that the cells were engrafted under all the conditions (FIG. 29). Accordingly, these cell sheets were fixed in 4% PFA, and frozen sections were prepared. These frozen sections were subjected to immunostaining using DAPI and anti-Zo-1 antibody (trade name: Anti Zo-1 Antibody, manufactured by Invitrogen Corp.) and anti-collagen IV antibody (Abcam plc). These immunostained sections were observed under a confocal laser scanning fluorescence microscope.

Assay [2] concerns single cells dispersed from KhES-1- and 1231A3-derived aggregates. Kind of assay: Aggregate proliferation-promoting factor: aggregate area in suspension culture with Y-27632 (Example 2). The following applies: SAG 300 nM or CHIR99021 3 μM in addition to 10 μM Y-27632; Day 1, 7, 14. As to the method:
The aggregates of Day 20 (1231A3) and Day 27 (KhES-1) from initiation of the suspension culture prepared as in Example 1 were washed with PBS, and a neuronal cell dispersion solution (manufactured by FUJIFILM Wako Pure Chemical Corp.) was added. After incubation at 37° C., they were dispersed into single cells by pipetting. These cells were suspended in 100 μL of a serum-free medium containing 10 μM Y-27632 (FUJIFILM Wako Pure Chemical Corp.) so as to become 2 to 5×10^5 cells per well of a non-cell adhesive 96-well culture plate (trade name: PrimeSurface 96-well V-bottom plate, manufactured by Sumitomo Bakelite Co., Ltd.), and suspension-cultured at 37° C. and 5% CO2. […] The reformed states of the aggregates were observed under a bright field microscope and a fluorescence microscope (BZ-X810 manufactured by Keyence Corp.) on Day 1, Day 7, and Day 14 after suspension culture for aggregate reforming. The areas of the aggregates were measured in Image J. The results of the KhES-1-derived cells are shown in FIG. 6 (an average value from 12 […] measured). The results of the 1231A3-derived cells in which the reformed states of the aggregates of Day 1 after suspension culture were observed are shown in FIG. 7.

Assay [3] deals with retinal cells (NR) dispersed into single cells (KhES-1-derived, dd33). Nature of the assay: Seeding onto Transwell: concentration and addition period of CHIR99021 (Example 10). The conditions noted are these: 1 μM to 9 μM CHIR99021 for 3 days to 9 days. As for the experimental part: The aggregates of 33 days (dd33) after the start of the suspension culture prepared as in Example 1 were washed with PBS, and a neuronal cell dispersion solution (manufactured by FUJIFILM Wako Pure Chemical Corp.) was added. After incubation at 37° C., they were dispersed into single cells by pipetting. […] 3 days or later from seeding, the medium was replaced once every 3 to 4 days.
Accordingly, these cell sheets were fixed in 4% PFA, and frozen sections were prepared. These frozen sections were subjected to immunostaining using DAPI.

The test system of assay [4] is single cell suspension of dispersed retinal cells (KhES-1-derived). Nature of the assay: Layer structure formation-promoting factor: reformed aggregates, immunostained sections (Example 3). The conditions noted are these: 3 μM CHIR99021. As to the method: The aggregates of Day 26 from initiation of the suspension culture prepared as in Example 1 were washed with PBS, and a neuronal cell dispersion solution (manufactured by FUJIFILM Wako Pure Chemical Corp.) was added. After incubation at 37° C., they were dispersed into single cells by pipetting. These cells were suspended in 100 μL of a serum-free medium so as to become 3.0×10^4 cells per well of a non-cell adhesive 96-well culture plate (trade name: PrimeSurface 96-well V-bottom plate, manufactured by Sumitomo Bakelite Co., Ltd.), and suspension-cultured at 37° C. and 5% CO2.
The aggregates of Day 15 (corresponding to Differentiation Day 41) and Day 28 (corresponding to Differentiation Day 54) after suspension culture for aggregate reforming were fixed in 4% PFA, and frozen sections were prepared. These frozen sections were subjected to immunostaining using DAPI and anti-Chx10 antibody (trade name: Anti CHX10 Antibody, Exalpha Biologicals Inc.), anti-β-catenin antibody (R&D Systems, Inc.), anti-collagen IV antibody (Abcam plc), anti-Zo-1 antibody (Invitrogen Corp.), anti-Ki67 antibody (Becton, Dickinson and Company), anti-Pax6 antibody (BioLegend, Inc.), anti-RxR-γ (RxRg) antibody (Spring Bioscience Corp.), anti-CRX antibody (Abnova Corp.), anti-NRL antibody (R&D Systems, Inc.), anti-recoverin antibody (manufactured by Proteintech Group, Inc.), anti-Islet-1 antibody (Developmental Studies Hybridoma Bank (DSHB)), anti-GS antibody (Sigma-Aldrich Co., LLC), anti-Brn3 antibody (Santa Cruz Biotechnology), and anti-calretinin antibody (R&D Systems, Inc.).
These immunostained sections were observed under a bright field microscope and a fluorescence microscope (BZ-X810 manufactured by Keyence Corp.) and a confocal laser scanning fluorescence microscope (SP-8 manufactured by Leica), and the results are shown in FIGS. 11 to 20. […] From FIGS. 19 and 20, it was confirmed that RxR-Y(RxRg)-positive and CRX-positive cone progenitor cells and recoverin-positive and CRX-positive photoreceptor progenitor cells were differentiated, and the differentiation of Islet-1-positive and Brn3-positive retinal ganglion cells and calretinin-positive amacrine cells was also confirmed.

For assay [5], the system named is retinal progenitor cells dispersed into single cells (KhES-1- and 1231A3-derived aggregates). Nature of the assay: Search of aggregate reforming factor: suspension culture of dispersed retinal cells (Example 1). The conditions noted are these: added at cell seeding; Y-27632 10 μM or 20 μM; Day 1 to Day 2 of suspension culture. As for the experimental part: Human ES cells (KhES-1 strain (Non Patent Literature 3)) and human iPS cells (1231A3 strain, Kyoto University) genetically engineered so as to have Rx::Venus reporter gene were cultured under feeder-free conditions in accordance with the method described in “Scientific Reports, 4, 3594 (2014)”. As a feeder-free medium, StemFit medium (trade name: AK03N, manufactured by Ajinomoto Co., Inc.) was used, and as a scaffold as an alternative to feeder cells, Laminin511-E8 (trade name, manufactured by Nippi, Inc.) was used.
Specific operation of maintenance culture for human ES and human iPS cells (human ES/iPS cells) was performed as follows: First, human ES/iPS cells that reached sub-confluency (state where about 60% of the culture area was covered by cells) were washed with PBS and separated into single cells by use of TrypLE Select (trade name, manufactured by Life Technologies). In this context, the dispersion into single cells refers to performing dispersion so as to become single cells, and a cell population dispersed into single cells is capable of containing a mass of 2 to 50 cells, in addition to single cells. Then, the separated human ES single cells were seeded in plastic culture dishes coated with Laminin 511-E8 and cultured under feeder-free conditions in StemFit medium in the presence of Y-27632 (ROCK inhibitor, 10 μM). […]

With `Cc1c[nH]c(-c2cnc(NCCNc3ccc(C#N)cn3)nc2-c2ccc(Cl)cc2Cl)n1` [CHIR99021], in assay [1], the “apical and basal polarity of sheet” value is “sheets of Rx::Venus-positive retinal progenitor cells having apical and basal polarities were formed again”. In addition, in assay [2], the “size of reformed aggregates versus only Y-27632” value is on record as “larger aggregates were reformed”. The “reforming of thick sheets” value in assay [3] was “thick sheets of Rx::Venus-positive retinal progenitor cells were reformed”. In addition, the reforming of aggregates entry in assay [4] (Day 1, Day 14, Day 28) is listed as “aggregates were reformed”. In assay [4] (Day 15 and Day 28 sections), the “apical-basal polarity (Zo-1, collagen IV)” value was “epithelial tissue having apical and basal polarities was formed”; the “layer structure formation (Rx::Venus, Chx10)” value is “a layer structure where Rx::Venus-positive and Chx10-positive neural retinal progenitor cells were contained was formed”.

For `C[C@@H](N)[C@H]1CC[C@H](C(=O)Nc2ccncc2)CC1` [Y-27632], the early aggregate reforming entry in assay [5] is listed as “aggregates were reformed from Day 1 to Day 2”.

(Values after US20250019652A1, “PRODUCTION METHOD FOR SHEET-LIKE RETINAL TISSUE” (RIKEN, priority 2021, published 2025).)
